Measured values reported in patent US10960020B2, “Modulation of PCSK9 and LDLR through DRP1 inhibition” (THE BRIGHAM AND WOMEN'S HOSPITAL, INC., priority 2016, dated 2021).

Test system: PCSK9 secretion in HepG2 cells
Test: Secreted PCSK9 ELISA, HepG2 media
Assay type: cell-based, human
Conditions: HepG2, 24 hours; chloroquine 50 μmol/L, Mdivi-1 50 μmol/L, MG132 0.3 μmol/L
Method: Pitavastatin and T0901317 were synthesized and provided by Kowa Company, Ltd. (Tokyo, Japan), and treated at a dose of 1 μM in all experiments. […] Mdivi-1 in DMSO vehicle was added at a concentration of 50 μM in all experiments. Mdivi-1 in DMSO vehicle was added to cell culture media in a 50 mL tube, vortexed hard for several minutes and then incubated at 37° C. prior to adding to cells to ensure the compound was fully solubilized.
HepG2 cells were obtained from ATCC (Manassas, Va.), and cultured in EMEM with L-glutamine (ATCC) medium, 1% pen/strep, with and without 10% FBS (Thermo Fisher Scientific, Waltham, Mass.) in 12-well plates (Corning, Durham, N.C.). HepG2 cells were plated at a density of 60-70% prior to treatment to avoid clumping. […] Cell viability was assessed by Trypan Blue exclusion using live/dead cell counting on a Countess™ II LT automated cell counter (Thermo Fisher Scientific).

**Q.** For CCN(CC)CCCC(C)Nc1ccnc2cc(Cl)ccc12 (stereo not shown) [chloroquine], which “PCSK9 secretion by ELISA (in words)” value is on record?
**A.** increased
